For one test, the system named is Vero. As to the kind of experiment: Cytotoxicity against african green monkey Vero cells after 72 hrs by MTT assay. Particulars: Chlorocebus sabaeus. In kind it is cell-based. For orientation: Tetrazolium dyes change colour on reduction, which living cells bring about.
Test [1] deals with Mycobacterium tuberculosis. Kind of test: Antimycobacterial activity against Mycobacterium tuberculosis H37Rv ATCC 27294 by alamar blue broth microdilution assay. In kind it is functional.

≈ marks a conversion by molar mass, not a printed value.

The IC50 is the concentration needed to halve the response being measured. The term MIC90 denotes an inhibitory concentration at the 90% level, which refers to growth in some studies and to a panel of isolates in others. In the test on Vero, `NNC(=O)c1ccncc1` [ISONIAZID] gave an IC50 of over 62.5 µg/mL. In test [1], this compound gave an MIC90 of 0.73 µM (≈ 0.1 µg/mL).
With `CN1CC(c2cccc([N+](=O)[O-])c2)C2(Cc3ccccc3C2=O)C12C(=O)c1ccccc1C2=O` (stereo unspecified), in the test with Vero, the IC50 was over 62.5 µg/mL. For the same compound, the MIC90 in test [1] amounted to 0.81 µM (≈ 0.366 µg/mL).
The matching figures for `CN1CC(c2ccc(C(F)(F)F)cc2)C2(Cc3ccccc3C2=O)C12C(=O)c1ccccc1C2=O` (stereo unspecified): over 62.5 µg/mL and 0.638 µM (≈ 0.303 µg/mL).
Compound `CN1CC(c2cncc(-c3ccc(F)cc3)c2)C2(Cc3ccccc3C2=O)C12C(=O)c1ccccc1C2=O` (stereo unspecified) gave an IC50 with Vero of over 62.5 µg/mL. For the same compound, the MIC90 in test [1] stood at 0.121 µM (≈ 0.0611 µg/mL).
For the compound `COc1ccc(C2CN(C)C3(C(=O)c4ccccc4C3=O)C23Cc2ccccc2C3=O)cc1` (stereo unspecified), the IC50 with Vero is over 62.5 µg/mL. The compound also showed an MIC90 in test [1] of over 6.25 µM.
Taken in the same sequence, the figures for `CN1CC(c2ccc(N3CCOCC3)cc2)C2(Cc3ccccc3C2=O)C12C(=O)c1ccccc1C2=O` (stereo unspecified) were over 62.5 µg/mL and 1.22 µM (≈ 0.598 µg/mL).
Taken in the same sequence, the figures for `CN1CC(c2ccc(Cl)cc2)C2(Cc3ccccc3C2=O)C12C(=O)c1ccccc1C2=O` (stereo unspecified) were over 62.5 µg/mL and 1.2 µM (≈ 0.528 µg/mL).
On to `CN1CC(c2ccccc2)C2(Cc3ccccc3C2=O)C12C(=O)c1ccccc1C2=O` (stereo unspecified), for which, in the test on Vero, the IC50 is over 62.5 µg/mL. In test [1], this compound yielded an MIC90 of 6.22 µM (≈ 2.53 µg/mL).
Taken in the same sequence, the figures for `CN1CC(c2ccc(C(=O)O)cc2)C2(Cc3ccccc3C2=O)C12C(=O)c1ccccc1C2=O` (stereo unspecified) were over 62.5 µg/mL and 0.295 µM (≈ 0.133 µg/mL).
Taken in the same sequence, the figures for `CN1CC(c2ccc(Br)cc2)C2(Cc3ccccc3C2=O)C12C(=O)c1ccccc1C2=O` (stereo unspecified) were over 62.5 µg/mL and 1.37 µM (≈ 0.667 µg/mL).
Taken in the same sequence, the figures for `CN1CC(c2ccc(OC(F)(F)F)cc2)C2(Cc3ccccc3C2=O)C12C(=O)c1ccccc1C2=O` (stereo unspecified) were over 62.5 µg/mL and 0.214 µM (≈ 0.105 µg/mL).
For `CN(C)c1ccc(C2CN(C)C3(C(=O)c4ccccc4C3=O)C23Cc2ccccc2C3=O)cc1` (stereo unspecified), in the test on Vero, the IC50 was over 62.5 µg/mL. For the same compound, in test [1], the MIC90 stood at 3.32 µM (≈ 1.5 µg/mL).
The matching figures for `CN1CC(c2cccc3c2OCO3)C2(Cc3ccccc3C2=O)C12C(=O)c1ccccc1C2=O` (stereo unspecified): over 62.5 µg/mL and 2.42 µM (≈ 1.09 µg/mL).

The record behind these values is ChEMBL document CHEMBL2062378, “Antimycobacterial activity: a facile three-component [3+2]-cycloaddition for the regioselective synthesis of highly functionalised dispiropyrrolidines” (Bioorg Med Chem Lett, 2012).
